According to PubChem BioAssay (NCI):
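Where inhibition never reached the appropriate level, the endpoint shown equals the highest concentration tested. Otherwise, values were interpolated linearly from a five-concentration, 48-hour dose response in 96-well plates. Abbreviation: GI50, concentration required for 50% inhibition of growth. TGI: total growth inhibition.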

How the values were obtained:
Test in all cases: growth of human tumour cells (NCI), 48 h
DU-145 prostate = test system: DU-145 prostate
NCI-H522 lung = test system: NCI-H522 lung
NCI/ADR-RES ovarian = test system: NCI/ADR-RES ovarian
SW-620 colon = test system: SW-620 colon
RXF 393 renal = test system: RXF 393 renal
U251 CNS = test system: U251 CNS
HT29 colon = test system: HT29 colon
UACC-62 melanoma = test system: UACC-62 melanoma
IGROV1 ovarian = test system: IGROV1 ovarian
786-0 renal = test system: 786-0 renal
ACHN renal = test system: ACHN renal
SK-OV-3 ovarian = test system: SK-OV-3 ovarian
MALME-3M melanoma = test system: MALME-3M melanoma
CAKI-1 renal = test system: CAKI-1 renal
SNB-75 CNS = test system: SNB-75 CNS
MDA-MB-435 = test system: MDA-MB-435
HCT-15 colon = test system: HCT-15 colon
HS 578T breast = test system: HS 578T breast
TK-10 renal = test system: TK-10 renal
UACC-257 melanoma = test system: UACC-257 melanoma
A498 renal = test system: A498 renal
SK-MEL-28 melanoma = test system: SK-MEL-28 melanoma
HL-60(TB) leukemia = test system: HL-60(TB) leukemia
MDA-MB-231 breast = test system: MDA-MB-231 breast
HCT-116 colon = test system: HCT-116 colon
HOP-92 NSCLC = test system: HOP-92 NSCLC
SR leukemia = test system: SR leukemia
MOLT-4 leukemia = test system: MOLT-4 leukemia
A549 NSCLC = test system: A549 NSCLC
K-562 leukemia = test system: K-562 leukemia
BT-549 breast = test system: BT-549 breast
T-47D breast = test system: T-47D breast
SF-295 CNS = test system: SF-295 CNS
SF-268 CNS = test system: SF-268 CNS
HCC-2998 colon = test system: HCC-2998 colon
NCI-H460 lung = test system: NCI-H460 lung
OVCAR-5 ovarian = test system: OVCAR-5 ovarian
KM12 colon = test system: KM12 colon
COLO 205 colon = test system: COLO 205 colon
OVCAR-3 ovarian = test system: OVCAR-3 ovarian
OVCAR-8 ovarian = test system: OVCAR-8 ovarian
LOX IMVI melanoma = test system: LOX IMVI melanoma
CCRF-CEM leukemia = test system: CCRF-CEM leukemia
NCI-H226 lung = test system: NCI-H226 lung
SK-MEL-5 melanoma = test system: SK-MEL-5 melanoma
SF-539 CNS = test system: SF-539 CNS
UO-31 renal = test system: UO-31 renal
M14 melanoma = test system: M14 melanoma
SK-MEL-2 melanoma = test system: SK-MEL-2 melanoma
PC-3 prostate = test system: PC-3 prostate
MCF7 breast = test system: MCF7 breast
NCI-H23 lung = test system: NCI-H23 lung
SN12C renal = test system: SN12C renal
SNB-19 CNS = test system: SNB-19 CNS
RPMI-8226 leukemia = test system: RPMI-8226 leukemia
OVCAR-4 ovarian = test system: OVCAR-4 ovarian
HOP-62 NSCLC = test system: HOP-62 NSCLC

## O=Cc1ccc(-c2ccc(-c3ccc(C=O)o3)[se]2)o1
DU-145 prostate
  GI50: > 100 µM
  TGI: > 100 µM
NCI-H522 lung
  GI50: 16.3 µM
  TGI: 31.1 µM
NCI/ADR-RES ovarian
  GI50: > 100 µM
  TGI: > 100 µM
SW-620 colon
  GI50: > 100 µM
  TGI: > 100 µM
RXF 393 renal
  GI50: 55.8 µM
  TGI: > 100 µM
U251 CNS
  GI50: 44.8 µM
  TGI: > 100 µM
HT29 colon
  GI50: > 100 µM
  TGI: > 100 µM
UACC-62 melanoma
  GI50: > 100 µM
  TGI: > 100 µM
IGROV1 ovarian
  GI50: > 65.9 µM
  TGI: > 100 µM
786-0 renal
  GI50: 53.2 µM
  TGI: > 100 µM
ACHN renal
  GI50: 45.5 µM
  TGI: > 100 µM
SK-OV-3 ovarian
  GI50: > 85.8 µM
  TGI: > 100 µM
MALME-3M melanoma
  GI50: > 100 µM
  TGI: > 100 µM
CAKI-1 renal
  GI50: > 100 µM
  TGI: > 100 µM
SNB-75 CNS
  GI50: 29.6 µM
  TGI: > 100 µM
MDA-MB-435
  GI50: > 100 µM
  TGI: > 100 µM
HCT-15 colon
  GI50: > 80 µM
  TGI: > 100 µM
HS 578T breast
  GI50: > 100 µM
  TGI: > 100 µM
TK-10 renal
  GI50: 7.73 µM
  TGI: > 100 µM
UACC-257 melanoma
  GI50: > 100 µM
  TGI: > 100 µM
A498 renal
  GI50: 0.302 µM
  TGI: 10.5 µM
SK-MEL-28 melanoma
  GI50: > 100 µM
  TGI: > 100 µM
HL-60(TB) leukemia
  GI50: > 100 µM
  TGI: > 100 µM
MDA-MB-231 breast
  GI50: 54 µM
  TGI: > 100 µM
HCT-116 colon
  GI50: > 100 µM
  TGI: > 100 µM
HOP-92 NSCLC
  GI50: 57.1 µM
  TGI: > 100 µM
SR leukemia
  GI50: > 100 µM
  TGI: > 100 µM
MOLT-4 leukemia
  GI50: > 100 µM
  TGI: > 100 µM
A549 NSCLC
  GI50: > 100 µM
  TGI: > 100 µM
K-562 leukemia
  GI50: > 100 µM
  TGI: > 100 µM
BT-549 breast
  GI50: > 100 µM
  TGI: > 100 µM
T-47D breast
  GI50: > 100 µM
  TGI: > 100 µM
SF-295 CNS
  GI50: > 46.2 µM
  TGI: > 65.6 µM
SF-268 CNS
  GI50: > 95.4 µM
  TGI: > 100 µM
HCC-2998 colon
  GI50: > 100 µM
  TGI: > 100 µM
NCI-H460 lung
  GI50: > 100 µM
  TGI: > 100 µM
OVCAR-5 ovarian
  GI50: > 85.2 µM
  TGI: > 100 µM
KM12 colon
  GI50: > 100 µM
  TGI: > 100 µM
COLO 205 colon
  GI50: > 100 µM
  TGI: > 100 µM
OVCAR-3 ovarian
  GI50: > 100 µM
  TGI: > 100 µM
OVCAR-8 ovarian
  GI50: > 100 µM
  TGI: > 100 µM
LOX IMVI melanoma
  GI50: > 100 µM
  TGI: > 100 µM
CCRF-CEM leukemia
  GI50: > 100 µM
  TGI: > 100 µM
NCI-H226 lung
  GI50: 41.7 µM
  TGI: > 100 µM
SK-MEL-5 melanoma
  GI50: > 100 µM
  TGI: > 100 µM
SF-539 CNS
  GI50: > 100 µM
  TGI: > 100 µM
UO-31 renal
  GI50: > 100 µM
  TGI: > 100 µM
M14 melanoma
  GI50: > 100 µM
  TGI: > 100 µM
SK-MEL-2 melanoma
  GI50: > 100 µM
  TGI: > 100 µM
PC-3 prostate
  GI50: > 100 µM
  TGI: > 100 µM
MCF7 breast
  GI50: 6.35 µM
  TGI: > 100 µM
NCI-H23 lung
  GI50: 56.3 µM
  TGI: > 100 µM
SN12C renal
  GI50: > 100 µM
  TGI: > 100 µM
SNB-19 CNS
  GI50: > 100 µM
  TGI: > 100 µM
RPMI-8226 leukemia
  GI50: > 100 µM
  TGI: > 100 µM
OVCAR-4 ovarian
  GI50: > 100 µM
  TGI: > 100 µM
HOP-62 NSCLC
  GI50: 57.5 µM
  TGI: > 100 µM

## FC(F)(F)c1ccc(-c2ncc(-c3ccc(C(F)(F)F)cc3)c(NCc3cc(C(F)(F)F)cc(C(F)(F)F)c3)n2)cc1
DU-145 prostate
  GI50: 5.25 µM
  TGI: > 100 µM
NCI-H522 lung
  GI50: 3.29 µM
  TGI: 22.6 µM
NCI/ADR-RES ovarian
  GI50: 4.62 µM
  TGI: > 100 µM
SW-620 colon
  GI50: 3.95 µM
  TGI: > 100 µM
RXF 393 renal
  GI50: 4.73 µM
  TGI: 74.9 µM
U251 CNS
  GI50: 3.57 µM
  TGI: > 100 µM
HT29 colon
  GI50: 6.95 µM
  TGI: > 100 µM
UACC-62 melanoma
  GI50: 3.77 µM
  TGI: > 100 µM
IGROV1 ovarian
  GI50: 9.02 µM
  TGI: > 100 µM
786-0 renal
  GI50: 3.87 µM
  TGI: > 100 µM
ACHN renal
  GI50: 3.91 µM
  TGI: > 100 µM
SK-OV-3 ovarian
  GI50: 7.03 µM
  TGI: 55.2 µM
MALME-3M melanoma
  GI50: 6.44 µM
  TGI: 46.3 µM
CAKI-1 renal
  GI50: 3.36 µM
  TGI: 28 µM
SNB-75 CNS
  GI50: 4.17 µM
  TGI: 73 µM
MDA-MB-435
  GI50: 4.23 µM
  TGI: > 100 µM
HCT-15 colon
  GI50: 3.74 µM
  TGI: > 100 µM
HS 578T breast
  GI50: 2.83 µM
  TGI: 27.4 µM
TK-10 renal
  GI50: 7.51 µM
  TGI: > 100 µM
UACC-257 melanoma
  GI50: 5.29 µM
  TGI: 44.4 µM
A498 renal
  GI50: 2.31 µM
  TGI: 8.75 µM
SK-MEL-28 melanoma
  GI50: 5.85 µM
  TGI: > 100 µM
HL-60(TB) leukemia
  GI50: 4.79 µM
  TGI: 36.2 µM
MDA-MB-231 breast
  GI50: 3.81 µM
  TGI: 14.8 µM
HCT-116 colon
  GI50: 3.84 µM
  TGI: > 100 µM
HOP-92 NSCLC
  GI50: 1.7 µM
  TGI: 5.05 µM
SR leukemia
  GI50: 5.07 µM
  TGI: > 100 µM
MOLT-4 leukemia
  GI50: 4.35 µM
  TGI: 71.8 µM
A549 NSCLC
  GI50: 4.05 µM
  TGI: > 100 µM
K-562 leukemia
  GI50: 3.97 µM
  TGI: > 100 µM
BT-549 breast
  GI50: 7.91 µM
  TGI: > 100 µM
T-47D breast
  GI50: 3.12 µM
  TGI: 29 µM
SF-295 CNS
  GI50: 2.94 µM
  TGI: 28.3 µM
SF-268 CNS
  GI50: 3.98 µM
  TGI: > 100 µM
HCC-2998 colon
  GI50: 5.76 µM
  TGI: 46.7 µM
NCI-H460 lung
  GI50: 3.72 µM
  TGI: 79.4 µM
OVCAR-5 ovarian
  GI50: 6.02 µM
  TGI: > 100 µM
KM12 colon
  GI50: 4.3 µM
  TGI: 63.2 µM
COLO 205 colon
  GI50: 2.34 µM
  TGI: 6.09 µM
OVCAR-3 ovarian
  GI50: 3.39 µM
  TGI: 16 µM
OVCAR-8 ovarian
  GI50: 3.8 µM
  TGI: > 100 µM
LOX IMVI melanoma
  GI50: 3.4 µM
  TGI: 26.2 µM
CCRF-CEM leukemia
  GI50: 4.34 µM
  TGI: > 100 µM
NCI-H226 lung
  GI50: 3.76 µM
  TGI: 83.8 µM
SK-MEL-5 melanoma
  GI50: 16.5 µM
  TGI: 41.8 µM
SF-539 CNS
  GI50: 7.71 µM
  TGI: > 100 µM
UO-31 renal
  GI50: 2.94 µM
  TGI: 36.6 µM
M14 melanoma
  GI50: 4.38 µM
  TGI: > 100 µM
SK-MEL-2 melanoma
  GI50: 2.84 µM
  TGI: 8.93 µM
PC-3 prostate
  GI50: 3.09 µM
  TGI: 18.3 µM
MCF7 breast
  GI50: 3.94 µM
  TGI: > 100 µM
NCI-H23 lung
  GI50: 3.24 µM
  TGI: 23.8 µM
SN12C renal
  GI50: 3.65 µM
  TGI: > 100 µM
SNB-19 CNS
  GI50: 3.49 µM
  TGI: > 100 µM
RPMI-8226 leukemia
  GI50: 4.24 µM
  TGI: 35.3 µM
OVCAR-4 ovarian
  GI50: 4.11 µM
  TGI: > 100 µM
HOP-62 NSCLC
  GI50: 5.16 µM
  TGI: > 100 µM
